Test results from patent US6545045B1, “Prostaglandin E agonists for treatment of glaucoma” (Alcon Manufacturing, Ltd., priority 1998, dated 2003).
One block for each compound: values may come before it.

Assays:
[1] = molecular target: T1, EP2 receptors (Homo sapiens, UniProt P43116); experiment: cAMP production (radioimmunoassay) via EP2 receptors in immortalized human non-pigmented ciliary epithelial cells; format: cell-based
T1 construct: Immortalized human non-pigmented ciliary epithelial cells (containing EP2 receptors); endogenous in cells; host or cells: immortalized human non-pigmented ciliary epithelial cells
Method: (§1) Immortalized human non-pigmented ciliary epithelial cells (containing EP2 receptors) and Chinese hamster ovary cells (containing EP4 receptors, Milne et al. Human moncytes and cultured Chinese hamster ovary cells express EP4 receptors positively coupled to adenylate cyclase, Br. J. Pharmacology, 113 (supplement):8 (1994)) were stimulated with various prostaglandins for 15-60 min at 23° C. The cAMP produced by receptor activation was determined by a specific radioimmunoassay as previously described (Sharif et al., Pharmacological analysis of mast cell mediator and neurotransmitter receptors coupled to adenylate cyclase and phospholipase C on immunocytochemically-defined human conjunctival epithelial cells, J. Ocular Pharmacology & Therapeutics, 13, 321-336 (1997); Crider et al. Prostaglandin-stimulated adenylyl cyclase activity via a pharmacologically-defined EP2 receptor in human non-pigmented epithelial cells, J. Ocular Pharmacology & Therapeutics 14:293-304 (1998); Crider et al. Use of a semi-automated, robotic radioimmunoassay to measure cAMP generated by activation of DP-, EP2- and IP-prostaglandin receptors in human ocular and other cell-types, Prostaglandins, Leukotrienes & Fatty Acids 59:77-82 (1998), Milne et al. Human moncytes and cultured Chinese hamster ovary cells express EP4 receptors positively coupled to adenylate cyclase, Br. J. Pharmacology, 113 (supplement):8, (1994)).

[2] = molecular target: T2, EP4 receptors (Cricetulus griseus, UniProt A0A061ILF4); experiment: cAMP production (radioimmunoassay) via EP4 receptors in Chinese hamster ovary cells; format: cell-based; conditions: stimulated 15-60 min at 23° C; for EC50: read-out: Potency (EC50, nM) at EP4 Receptors in Chinese Hamster Ovary Cells
T2 construct: Chinese hamster ovary cells (containing EP4 receptors); endogenous in cells; host or cells: Chinese hamster ovary (CHO) cells
Method: as §1

[3] = cAMP production, stimulated 15-60 min at 23° C

T1 sequence (P43116 whole entry): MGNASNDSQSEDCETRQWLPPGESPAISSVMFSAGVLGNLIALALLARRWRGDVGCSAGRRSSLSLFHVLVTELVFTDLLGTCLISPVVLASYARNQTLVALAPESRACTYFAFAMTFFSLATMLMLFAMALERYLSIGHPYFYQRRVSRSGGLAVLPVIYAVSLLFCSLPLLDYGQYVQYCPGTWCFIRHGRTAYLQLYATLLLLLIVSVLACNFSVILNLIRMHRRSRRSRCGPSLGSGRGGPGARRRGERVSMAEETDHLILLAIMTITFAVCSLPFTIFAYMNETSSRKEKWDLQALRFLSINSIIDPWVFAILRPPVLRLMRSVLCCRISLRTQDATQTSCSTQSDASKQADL
T2 sequence (A0A061ILF4 1-488): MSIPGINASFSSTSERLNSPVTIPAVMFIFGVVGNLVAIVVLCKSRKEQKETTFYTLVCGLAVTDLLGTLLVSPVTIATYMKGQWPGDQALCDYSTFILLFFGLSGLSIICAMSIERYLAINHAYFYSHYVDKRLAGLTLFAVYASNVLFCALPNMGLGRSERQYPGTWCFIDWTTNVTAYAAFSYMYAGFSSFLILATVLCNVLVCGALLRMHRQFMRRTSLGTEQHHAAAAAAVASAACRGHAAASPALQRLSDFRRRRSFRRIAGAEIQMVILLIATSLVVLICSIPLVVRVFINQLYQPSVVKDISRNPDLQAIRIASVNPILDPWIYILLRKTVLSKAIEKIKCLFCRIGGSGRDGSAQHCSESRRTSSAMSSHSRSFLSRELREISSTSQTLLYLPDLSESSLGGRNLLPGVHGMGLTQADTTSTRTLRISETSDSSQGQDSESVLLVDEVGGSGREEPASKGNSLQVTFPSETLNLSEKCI

Potency (EC50, nM) at EP4 Receptors in Chinese Hamster Ovary Cells [2]: Inactive
Potency (EC50, nM) at EP4 Receptors in Chinese Hamster Ovary Cells ([2]; listed as cloprostenol): inactive
Structure (SMILES): O=C(O)CCC/C=C\CC1C(O)CC(O)C1/C=C/C(O)COc1cccc(Cl)c1 (stereo not shown) [Cloprostenol]
Potency (EC50, nM) at EP2 Receptors in Immortalized Human Non-pigmented Ciliary Epithelial Cells [1, 3]: Inactive
Potency (EC50, nM) at EP2 Receptors in Immortalized Human Non-pigmented Ciliary Epithelial Cells ([1]; cAMP production, stimulated 15-60 min at 23° C, listed as cloprostenol): inactive

Structure (SMILES): CCCC1([C@H](O)C/C=C/[C@H]2[C@H](O)CC(=O)[C@@H]2CCCCCCC(=O)OC)CCC1 [Butaprost]
selectivity between EP2 and EP4 receptors (relative agonist potency) ([1]; EP2 versus EP4, from EC50 values of Table 1): more EP2-selective

efficacy at EP4 Receptors in Chinese Hamster Ovary Cells [2]: 86%
EC50 [2]: 38 nM
Structure (SMILES): CCCCC[C@H](O)/C=C/[C@H]1CCC(=O)[C@@H]1CCCCCCC(=O)O [11-deoxy-PGE1]
EC50 ([1]; cAMP production, stimulated 15-60 min at 23° C, read-out: Potency (EC50, nM) at EP2 Receptors in Immortalized Human Non-pigmented Ciliary Epithelial Cells): 500 nM

efficacy at EP4 Receptors in Chinese Hamster Ovary Cells [2]: 100%
EC50 [2]: 35 nM
Structure (SMILES): CCCCC[C@H](O)/C=C/[C@H]1[C@H](O)CC(=O)[C@@H]1C/C=C\CCCC(=O)O [PGE2]

Potency (EC50, nM) at EP4 Receptors in Chinese Hamster Ovary Cells [2]: Inactive
Potency (EC50, nM) at EP4 Receptors in Chinese Hamster Ovary Cells ([2]; listed as fluprostenol): inactive
Structure (SMILES): O=C(O)CCC/C=C\C[C@@H]1[C@@H](/C=C/[C@@H](O)COc2cccc(C(F)(F)F)c2)[C@H](O)C[C@@H]1O (racemic) [Fluprostenol]
Potency (EC50, nM) at EP2 Receptors in Immortalized Human Non-pigmented Ciliary Epithelial Cells [1, 3]: Inactive
Potency (EC50, nM) at EP2 Receptors in Immortalized Human Non-pigmented Ciliary Epithelial Cells ([1]; cAMP production, stimulated 15-60 min at 23° C, listed as fluprostenol): inactive

efficacy at EP4 Receptors in Chinese Hamster Ovary Cells [2]: 100%
Structure (SMILES): CCCCC(C)(C)[C@H](O)/C=C/[C@H]1[C@H](O)CC(=O)[C@@H]1C/C=C\CCCC(=O)O [16,16-dimethyl-PGE2, 16,16-dimethyl PGE2]

efficacy at EP4 Receptors in Chinese Hamster Ovary Cells [2]: 99%
Structure (SMILES): CCCCC(C)(C)[C@H](O)/C=C/[C@H]1CCC(=O)[C@@H]1C/C=C\CCCC(=O)O [11-deoxy-16,16-dimethyl-PGE2, 11-deoxy-16,16-dimethyl PGE2]
